Data: patent US20160046616A1, “NRF2 SMALL MOLECULE INHIBITORS FOR CANCER THERAPY” (THE JOHNS HOPKINS UNIVERSITY, priority 2013, published 2016)

Columns and labels:
[1] = test system: H1437 NRF2-ARE-Fluc stable cell line; test: H1437 Nrf2 assay: NRF2-ARE firefly luciferase reporter gene assay; type: cell-based; settings: Homo sapiens, NCI-H1437, H1437 NRF2-ARE-Fluc stable cell line; read-out: Potency of inhibition, H1437
[2] = test system: A549 NRF2-ARE-Fluc stable cell line; test: A549 Nrf2 assay: NRF2-ARE firefly luciferase reporter gene assay; type: cell-based; settings: Homo sapiens, read-out: Potency of inhibition, A549
Method in brief: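 A549 cells (Keap1 loss-of-function, constitutive NRF2) stably carrying ARE-driven firefly luciferase; compound treatment 18–24 h at 37 °C, 0.46% DMSO final.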

SMILES	IC50 [1]	IC50 [2]
O=C(Nc1ccc(S(=O)(=O)N2CCC(F)(F)CC2)cc1)c1ccc(CN2CCc3ccccc3C2)cc1 [compound 188]	< 5 µM	< 5 µM
Cc1ccccc1C(=O)N1CCc2cc(-c3cncc(NC(=O)Cc4ccccc4)n3)ccc21 [Compound 104]	5 to 25 µM	< 5 µM
O=C(Nc1ccc(S(=O)(=O)N2CCOCC2)cc1)c1ccc(CCN2CCc3ccccc3C2)cc1 [compound 166]	5 to 25 µM	< 5 µM
O=C(Nc1ccc(S(=O)(=O)N2CCOCC2)cc1)c1ccc(CN2CCCC(c3ccccc3)C2)cc1 (stereo not drawn) [Compound 207]	5 to 25 µM	5 to 25 µM
Cc1ccccc1C(=O)N1CCc2cc(N3CCC(N)C3)ccc21 (stereo not drawn) [Compound 93, (5-(3-aminopyrrolidin-1-yl)indolin-1-yl)(o-tolyl)methanone]	> 25 µM	5 to 25 µM
Cc1ccsc1C(=O)N1CCc2cc(-c3nc(NC(=O)Cc4ccc5c(c4)OCO5)sc3C)ccc21 [Compound 182]	< 5 µM	< 5 µM
O=C(Nc1ncc(Cc2ccc(C(F)(F)F)cc2)s1)c1c[nH]c(-c2ccccc2)n1 [Compound 118]	> 25 µM	5 to 25 µM
Cc1ncccc1C(=O)N1CCc2cc(-c3nc(NC(=O)Cc4ccc5c(c4)OCO5)sc3C)ccc21 [Compound 139]	< 5 µM	5 to 25 µM
Cc1ccncc1C(=O)N1CCc2cc(-c3nc(NC(=O)Cc4ccc5c(c4)OCO5)sc3C)ccc21 [Compound 140]	< 5 µM	< 5 µM
O=C(Nc1ncc(Cc2ccccc2Cl)s1)c1ccn(-c2ccccc2)n1 [Compound 216]	5 to 25 µM	5 to 25 µM
O=C(Nc1ccc(S(=O)(=O)NC2CCOCC2)cc1)c1ccc(CN2CCc3ccccc3C2)cc1 [compound 176]	5 to 25 µM	< 5 µM
O=C(Cc1ccccc1)Nc1cccc(-c2ccc3[nH]c(-c4ccccc4)nc3c2)n1 [Compound 92]	> 25 µM	5 to 25 µM
Cc1ccccc1S(=O)(=O)N1CCc2cc(-c3nc(NC(=O)Cc4cccc(C(F)(F)F)c4)sc3C)ccc21 [Compound 132]	5 to 25 µM	5 to 25 µM
Cc1cc(Cn2ccc(C(=O)Nc3ncc(Cc4ccc(C(F)(F)F)cc4)s3)n2)ccn1 [Compound 191]	< 5 µM	< 5 µM
Cc1ccccc1S(=O)(=O)N1CCc2cc(-c3nc(NC(=O)Cc4ccccc4C(F)(F)F)sc3C)ccc21 [Compound 129]	> 25 µM	< 5 µM

Results, then the compound that gave them:

IC50 [1]	IC50 [2]	SMILES
> 25 µM	< 5 µM	Cc1ccc(CC(=O)Nc2nc(-c3ccc4c(c3)CCN4S(=O)(=O)c3ccccc3C)c(C)s2)cc1 [Compound 133]
< 5 µM	< 5 µM	CC1=C(C(=O)N2CCc3cc(-c4nc(NC(=O)Cc5ccc6c(c5)OCO6)sc4C)ccc32)OCCO1 [Compound 162]
5 to 25 µM	5 to 25 µM	Cc1ccc(Cc2cnc(NC(=O)c3ccn(-c4ccccc4)n3)s2)o1 [Compound 213]
< 5 µM	< 5 µM	Cc1noc(C)c1C(=O)N1CCc2cc(-c3nc(NC(=O)Cc4ccc5c(c4)OCO5)sc3C)ccc21 [Compound 183]
5 to 25 µM	> 25 µM	Cc1ccccc1C(=O)N1CCc2cc(-c3nc(NC(=O)Cc4ccc(OCCOCCOCCN)cc4)sc3C)ccc21 [Compound 239, 2-(4-(2-(2-(2-aminoethoxy)ethoxy)ethoxy)phenyl)-N-(5-methyl-4-(1-(2-methylbenzoyl)indolin-5-yl)thiazol-2-yl)acetamide]
< 5 µM	5 to 25 µM	O=C(Nc1ncc(Cc2cccc(Cl)c2)s1)c1ccn(-c2ccccc2)n1 [Compound 220]
< 5 µM	< 5 µM	CC1CCCN(C(=O)c2ccc(S(=O)(=O)N3CCC(c4nc5ccccc5s4)CC3)cc2)C1 (stereo not drawn) [Compound 36]
> 25 µM	> 25 µM	O=C(Cc1ccccc1)Nc1ccc(Cl)nc1 [Compound 106, N-(6-chloropyridin-3-yl)-2-phenylacetamide]
< 5 µM	< 5 µM	O=C(Nc1ccc(S(=O)(=O)N2CCOCC2)cc1)c1ccc(N2CCc3ccccc3C2)cc1 [compound 152]
